Laboratory results from US20240408068A1, “Helicase Primase Inhibitors For Treating Cancer In A Combination Therapy With Oncolytic Viruses” (priority 2018, published 2024).
Where two headings read alike, the source gives them in different places.

How the values were obtained:
HSV-2 = test: In vitro activity, HSV-2 infected Vero cells; type: cell-based
Description: (§1) The in vitro activity of the new compounds was measured as described in WO2017/174640 and in WO2019/068817.

HSV-1 ACV resistant = test: In vitro activity, HSV-1 ACV resistant; type: cell-based; details: Human alphaherpesvirus 1
Description: as §1

HSV-1 [1] = test: In vitro activity, HSV-1 infected Vero cells; type: cell-based
Description: as §1

[2] = described in WO2019/068817; cited from earlier work
carboanhydrase = details: described in WO2019/068817; cited from earlier work
HSV-1 [3] = test: Second oHSV experiment (repeated virus injection): number of dead animals by day; type: in vivo, mice; details: for Number of dead animals by day: n=10; for rescue of mice from virus-induced death: second experiment, multiple intratumoral HSV injections, 10 mg/kg po
Description: The methods of the first experiment were used and the experimental design was modified in the second experiment as follows: • 1. The oncolytic herpesvirus was, in contrast to the first experiment, injected multiple times at a constant dose at distinct intervals. • 2. In addition to Example 7(-) used in the first experiment, the efficacy of a series of helicase primase inhibitors was tested in the second experiment to enable the class of helicase primase inhibitors in general.
Pharmacological animal groups (10 animals per group, 80 animals in total and 5 animals per group in the satellite group; 50 animals in total used for analysis of plasma and tumor samples) were organized as such: • 1. Control virus-untreated group: test compound vehicle, oral gavage, once a day, for 2 days and starting 48 h after each virus injection time-point. • 2. Control virus vehicle-treated group: 100 μL of virus vehicle by intratumoral injection when tumors reached an average volume of ˜50 mm^3 (i.e. on day 11) then 2 injections spaced 5 days apart from each other; with test compound vehicle, oral gavage, once a day, for 2 days and starting 48 h after each virus injection time-point. • 3. HSV-1 (5×10^7 pfu)-treated group: 100 μL of HSV-1 (5×10^7) by intratumoral injection when tumors reached an average volume of ˜50 mm^3 (i.e. on day 11) then 2 injections spaced 5 days apart from each other; with test compound vehicle, oral gavage, once a day, for 2 days and starting 48 h after each virus injection time-point and with anti-PD-1 vehicle, intraperitoneal injection (100 μL PBS) on the same day as the virus injection, and then 3 administrations spaced 3 days apart from each other (days 11, 14, 17 and 20). • 4. HSV-1 (5×10^7 pfu)+anti-PD1-treated group: 100 μL of HSV-1 (5×10^7 pfu) intratumoral injection when tumors reached an average volume of ˜50 mm^3 (i.e. on day 11) then 2 injections spaced 5 days apart from each other; with test compound vehicle, oral gavage, once a day, for 2 days and starting 48 h after each virus injection time-point and with anti-PD-1 (5 mg/kg), intraperitoneal injection on the same day as the virus injection, and then 3 administrations spaced 3 days apart from each other (days 11, 14, 17 and 20). • 5. HSV-1 (5×10^7 pfu)-Example 10—treated group: 100 μL of HSV-1 (5×10^7 pfu) intratumoral injection when tumors reached an average volume of ˜50 mm^3 (i.e. on day 11) then 2 injections spaced 5 days apart from each other; with Example 10 (10 mg/kg), oral gavage, once a day, for 2 days and starting 48 h after each virus injection time-point (days 13, 14, 18, 19, 23 and 24). • 6. HSV-1 (5×10^7 pfu)-pritelivir-treated group: 100 μL of HSV-1 (5×10^7 pfu) intratumoral injection when tumors reached an average volume of ˜50 mm^3 (i.e. on day 11) then 2 injections spaced 5 days apart from each other; with pritelivir (10 mg/kg), oral gavage, once a day, for 2 days and starting 48 h after each virus injection time-point (days 13, 14, 18, 19, 23 and 24). • 7. HSV-1 (5×10^7 pfu)-amenamevir-treated group: 100 μL of HSV-1 (5×10^7 pfu) intratumoral injection when tumors reached an average volume of ˜5 0mm^3 (i.e. on day 11) then 2 injections spaced 5 days apart from each other; with amenamevir (10 mg/kg), oral gavage, once a day, for 2 days and starting 48 h after each virus injection time-point (days 13, 14, 18, 19, 23 and 24). • 8. HSV-1 (5×10^7 pfu)-Example 10+anti-PD1-treated group: 100 μL of HSV-1 (5×10^7 pfu) intratumoral injection when tumors reached an average volume of ˜50 mm^3 (i.e. on day 11) then 2 injections spaced 5 days apart from each other; with Example 10 (10 mg/kg), oral gavage, once a day, for 2 days and starting 48 h after each virus injection time-point (days 13, 14, 18, 19, 23 and 24) and with anti-PD-1 (5 mg/kg), intraperitoneal injection on the same day as the virus injection and then 3 administrations spaced 3 days apart each other (days 11, 14, 17 and 20). Results of the Second oHSV Experiment […]

Compound: Cc1nc(N(C)C(=O)C2Cc3ccc(-c4cc(F)ccc4F)cc3C2)sc1S(N)(=O)=O (racemic) [Example 1, 5-(2,5-Difluorophenyl)-N-methyl-N-(4-methyl-5-sulfamoylthiazol-2-yl)-2,3-di-hydro-1H-indene-2-carboxamide]
- IC50 (HSV-2; Human alphaherpesvirus 2, Vero): 50 nM
- IC50 (HSV-1 ACV resistant): 16 nM
- IC50 (HSV-1 [1]; Human alphaherpesvirus 1, Vero): 16 nM

Compound: Cc1nc(N(C)C(=O)C2Cc3ccc(-c4cc(F)ccc4F)cc3C2)sc1S(N)(=O)=O (single isomer, unassigned; (+)) [Example 3, (+)-5-(2,5-difluorophenyl)-N-methyl-N-(4-methyl-5-sulfamoylthiazol-2-yl)-2,3-dihydro-1H-indene-2-carboxamide]
- IC50 (HSV-2): 16 nM
- IC50 (HSV-1 [1]): 0.5 nM

Compound: Cc1nc(N(C)C(=O)C2Cc3ccc(-c4cc(F)ccc4F)cc3C2)sc1S(C)(=N)=O (single isomer, unassigned) [Example 5, 5-(2,5-Difluorophenyl)-N-methyl-N-(4-methyl-5-(S-methylsulfonimidoyl)thiazol-2-yl)-2,3-dihydro-1H-indene-2-carboxamide]
- IC50 (HSV-2): 20000 nM
- IC50 (HSV-1 [1]): 20000 nM

Compound: Nc1nc2c(ncn2COCCO)c(=O)[nH]1 [Acyclovir, reference compound]
- IC50 (HSV-2; Human alphaherpesvirus 2, Vero): 500 to 3000 nM
- IC50 (HSV-1 ACV resistant): > 25000 nM
- IC50 (HSV-1 [1]; Human alphaherpesvirus 1, Vero): 500 to 3000 nM

Compound: Cc1nc(N(C)C(=O)Cc2ccc(-c3cc(F)ccc3F)cc2)sc1[S@@](C)(=N)=O [drawing 1]
- brain penetration [2]: improved brain penetration
- off-target carboanhydrase activity (carboanhydrase): no off-target carboanhydrase activity

Compound: Cc1cccc(C)c1N(CC(=O)Nc1ccc(-c2ncon2)cc1)C(=O)C1CCS(=O)(=O)CC1 [amenamevir, Amenamevir]
- Number of dead animals by day (HSV-1 [3]; day 7, HSV-1 5×10^7 pfu + amenamevir 10 mg/kg po): 0
- Number of dead animals by day (HSV-1 [3]; day 9, HSV-1 5×10^7 pfu + amenamevir 10 mg/kg po): 0
- Number of dead animals by day (HSV-1 [3]; day 11, HSV-1 5×10^7 pfu + amenamevir 10 mg/kg po): 0
- Number of dead animals by day (HSV-1 [3]; day 14, HSV-1 5×10^7 pfu + amenamevir 10 mg/kg po): 0
- Number of dead animals by day (HSV-1 [3]; day 16, HSV-1 5×10^7 pfu + amenamevir 10 mg/kg po): 0
- Number of dead animals by day (HSV-1 [3]; day 18, HSV-1 5×10^7 pfu + amenamevir 10 mg/kg po): 2
- Number of dead animals by day (HSV-1 [3]; day 21, HSV-1 5×10^7 pfu + amenamevir 10 mg/kg po): 2
- rescue of mice from virus-induced death (HSV-1 [3]): the mice can be rescued

Compound: Cc1nc(N(C)C(=O)Cc2ccc(-c3cc(F)ccc3F)cc2)sc1S(N)(=O)=O [Example 10, 2-(2′,5′-Difluoro-[1,1′-biphenyl]-4-yl)-N-methyl-N-(4-methyl-5-sulfamoylthiazol-2-yl)acetamide]
- Number of dead animals by day (HSV-1 [3]; day 7, HSV-1 5×10^7 pfu + Example 10 10 mg/kg po): 0
- Number of dead animals by day (HSV-1 [3]; day 7, HSV-1 5×10^7 pfu + anti-PD-1 5 mg/kg ip + Example 10 10 mg/kg po): 0
- Number of dead animals by day (HSV-1 [3]; day 9, HSV-1 5×10^7 pfu + Example 10 10 mg/kg po): 0
- Number of dead animals by day (HSV-1 [3]; day 9, HSV-1 5×10^7 pfu + anti-PD-1 5 mg/kg ip + Example 10 10 mg/kg po): 0
- Number of dead animals by day (HSV-1 [3]; day 11, HSV-1 5×10^7 pfu + Example 10 10 mg/kg po): 0
- Number of dead animals by day (HSV-1 [3]; day 11, HSV-1 5×10^7 pfu + anti-PD-1 5 mg/kg ip + Example 10 10 mg/kg po): 0
- Number of dead animals by day (HSV-1 [3]; day 14, HSV-1 5×10^7 pfu + Example 10 10 mg/kg po): 0
- Number of dead animals by day (HSV-1 [3]; day 14, HSV-1 5×10^7 pfu + anti-PD-1 5 mg/kg ip + Example 10 10 mg/kg po): 0
- Number of dead animals by day (HSV-1 [3]; day 16, HSV-1 5×10^7 pfu + Example 10 10 mg/kg po): 0
- Number of dead animals by day (HSV-1 [3]; day 16, HSV-1 5×10^7 pfu + anti-PD-1 5 mg/kg ip + Example 10 10 mg/kg po): 0
- Number of dead animals by day (HSV-1 [3]; day 18, HSV-1 5×10^7 pfu + Example 10 10 mg/kg po): 1
- Number of dead animals by day (HSV-1 [3]; day 18, HSV-1 5×10^7 pfu + anti-PD-1 5 mg/kg ip + Example 10 10 mg/kg po): 1
- Number of dead animals by day (HSV-1 [3]; day 21, HSV-1 5×10^7 pfu + Example 10 10 mg/kg po): 1
- Number of dead animals by day (HSV-1 [3]; day 21, HSV-1 5×10^7 pfu + anti-PD-1 5 mg/kg ip + Example 10 10 mg/kg po): 1
- rescue of mice from virus-induced death (HSV-1 [3]): the mice can be rescued

Compound: Cc1nc(N(C)C(=O)Cc2ccc(-c3ccccn3)cc2)sc1S(N)(=O)=O [pritelivir, Pritelivir]
- Number of dead animals by day (HSV-1 [3]; day 7, HSV-1 5×10^7 pfu + pritelivir 10 mg/kg po): 0
- Number of dead animals by day (HSV-1 [3]; day 9, HSV-1 5×10^7 pfu + pritelivir 10 mg/kg po): 0
- Number of dead animals by day (HSV-1 [3]; day 11, HSV-1 5×10^7 pfu + pritelivir 10 mg/kg po): 0
- Number of dead animals by day (HSV-1 [3]; day 14, HSV-1 5×10^7 pfu + pritelivir 10 mg/kg po): 0
- Number of dead animals by day (HSV-1 [3]; day 16, HSV-1 5×10^7 pfu + pritelivir 10 mg/kg po): 0
- Number of dead animals by day (HSV-1 [3]; day 18, HSV-1 5×10^7 pfu + pritelivir 10 mg/kg po): 0
- Number of dead animals by day (HSV-1 [3]; day 21, HSV-1 5×10^7 pfu + pritelivir 10 mg/kg po): 0
- rescue of mice from virus-induced death (HSV-1 [3]): the mice can be rescued

Compound: Cc1nc(N(C)C(=O)C2Cc3ccc(-c4cc(F)ccc4F)cc3C2)sc1S(N)(=O)=O (single isomer, unassigned; (-)) [Example 2, (−)-5-(2,5-Difluorophenyl)-N-methyl-N-(4-methyl-5-sulfamoylthiazol-2-yl)-2,3-dihydro-1H-indene-2-carboxamide]
- IC50 (HSV-2): 16000 nM
- IC50 (HSV-1 [1]): 2000 nM

Compound: Cc1nc(N(C)C(=O)C2Cc3ccc(-c4cc(F)ccc4F)cc3C2)sc1S(C)(=N)=O (racemic) [Example 4, 5-(2,5-Difluorophenyl)-N-methyl-N-(4-methyl-5-(S-methylsulfonimidoyl)thiazol-2-yl)-2,3-dihydro-1H-indene-2-carboxamide]
- IC50 (HSV-2; Human alphaherpesvirus 2, Vero): 1500 nM
- IC50 (HSV-1 ACV resistant): 750 nM
- IC50 (HSV-1 [1]; Human alphaherpesvirus 1, Vero): 750 nM

Compound: Cc1nc(N(C)C(=O)C2Cc3ccc(-c4cc(F)ccc4F)cc3C2)sc1S(C)(=N)=O (single isomer, unassigned) [Example 8, 5-(2,5-Difluorophenyl)-N-methyl-N-(4-methyl-5-(S-methylsulfonimidoyl)thiazol-2-yl)-2,3-dihydro-1H-indene-2-carboxamide]
- IC50 (HSV-2): 1500 nM
- IC50 (HSV-1 [1]): 175 nM

Compound: Cc1nc(N(C)C(=O)C2Cc3ccc(-c4cc(F)ccc4F)cc3C2)sc1S(C)(=N)=O (single isomer, unassigned) [Example 6, 5-(2,5-Difluorophenyl)-N-methyl-N-(4-methyl-5-(S-methylsulfonimidoyl)thiazol-2-yl)-2,3-dihydro-1H-indene-2-carboxamide]
- IC50 (HSV-2): 750 nM
- IC50 (HSV-1 [1]): 75 nM

Compound: Cc1nc(N(C)C(=O)C2Cc3ccc(-c4cc(F)ccc4F)cc3C2)sc1S(C)(=N)=O (single isomer, unassigned) [Example 9, 5-(2,5-Difluorophenyl)-N-methyl-N-(4-methyl-5-(S-methylsulfonimidoyl)thiazol-2-yl)-2,3-dihydro-1H-indene-2-carboxamide]
- IC50 (HSV-2): 45000 nM
- IC50 (HSV-1 [1]): 10000 nM
